Test results from patent publication US20260355180A1, “COMPOSITIONS AND METHODS FOR SPLICEOSOME-TARGETED THERAPIES” (Institute for Cancer Research d/b/a The Research Institute …, priority 2022, published 2026).

Key:
[1] = tested on: MEF RA cells; test: pMLKL western blot / necroptosis, MEF RHIM-A mutant (RA); assay type: cell-based, mouse; settings: 2.5 nM PlaB, 18 hours
Procedure: (§1) FIG. 5A-5E: SF3B1 perturbation upregulates A-RNA and Z-nucleic acids in MEFs. (FIG. 5A) 5 nM of PlaB induces A-RNA and Z-Nucleic acids in ΔZBP1 MEF cells. (FIG. 5B) Quantification of A-RNA and Z-Nucleic acids. […] Plots of signal intensity are mean±SEM, two-tailed unpaired Student's t test *p<0.05, ***p<0.001, ****p<0.0001. 18 hours of PlaB treatment for IF, WB and rescue experiments. IF: 5 nM PlaB, WB and rescue experiments: 2.5 nM PlaB.
(§2) Since induction of Z-nAs can result in ZBP1-dependent necroptosis, we analyzed induction of necroptosis in necroptotic competent MEFs using spliceosome inhibition. […] We also determined that MEFs ΔZBP1, WT, and Flag-ZBP1 cells treated with PlaB began dying within 24hours after treatment. With MEF Flag-ZBP1 cells showing only 20% survival after 24 hours (FIG. 16).

[2] = tested on: MEF ΔZα cells; test: A-RNA and Z-NA accumulation in MEF ΔZα; assay type: cell-based, mouse; settings: SF3B1 inhibition
[3] = tested on: MEF Flag-ZBP1 cells; test: A-RNA and Z-NA accumulation in MEF Flag-ZBP1; assay type: cell-based, mouse; settings: SF3B1 inhibition
[4] = tested on: H82 KO cells; test: CytoToxicity of PlaB in TNFR1-, TRADD-, FADD-, CASP8-KO H82 cells (trypan blue); assay type: cell-based; settings: 2.5 nM PlaB, 18 hrs
Text: (§3) […]: CytoToxicity analysis of PlaB in TNFR1-KO and TRADD-KO H82 cells […] and H446 cells (FIG. 16B). CytoToxicity analysis of PlaB in FADD-KO and CASP8-KO H82 cells (FIG. 16C) and H446 cells (FIG. 16D). EV refers to cells treated with an empty vector.
(§4) Since RIPK1 mediated apoptosis can be triggered by TNF110, TNFR1 and TRADD-KO SCLC cell lines are generated herein for subsequent studies. Here, we utilize CRISPR-Cas9 KO to effectively knockout TNFR1 and TRADD in SCLC cells. To confirm depletion of TNFR1 and TRADD proteins, cell lysates are collected and western blot analysis is performed. The following experiments are performed using the TNFR1 and TRADD-KO SCLC cells generated above.
(§5) H82 and H446 WT and TNFR1 and TRADD-KO cells generated above are treated with DMSO or 2.5 nM PlaB for 18 hrs. Then, the cells are counted using 0.4% trypan blue solution assessing total viable cells and the percent of cell survived with the H82 and H446 WT cells is compared. (FIG. 15A-15B) This allows us to confirm whether TNF is partially or fully responsible for PlaB-mediated cell death in SCLC cell lines.
(§6) Additionally, we analyzed the role played by FADD and CAPS8 in rescuing H82 and H446 cells from PlaB induced toxicity. Using the methods described above for the generation of TNFR1 and TRADD-KO cells, H82 and H446 FADD-KO cells and H82 and H446 CASP8-KO cells were generated. These cells were then treated with DMSO or 2.5 nM PlaB for 18 hrs and compared to WT H82 and H446 cells. […] (FIG. 15C and FIG. 15D)

[5] = tested on: H446 SCLC cells; test: RIPK1 depletion rescue of PlaB cytotoxicity, H446; assay type: cell-based, human; settings: 18 hours of PlaB, RIPK1 depleted H446
Procedure: FIG. 2A) SCLC cell lines (H446 and H82) and immortalized fibroblasts (FC1010 and HS68) cell survival curves after 72 hours of PlaB treatment. FIG. 2B) RIPK1 depletion rescues H82 and H446 cell survival after 18 hours of PlaB treatment. FIG. 2C) Western blot showing RIPK1 protein depletion. Mean±SEM, Welch's t test *p<0.05, **p<0.01.
Cancer deregulates splicing^31,32, and we hypothesized that hyper-proliferative SCLCs are dependent on splicing machineries for increased tumorigenicity^90.

[6] = tested on: H82 SCLC cells; test: IFN response by rRT-qPCR, H82; assay type: cell-based; settings: dose-dependent
Text: FIG. 3A-3D: SF3B1 inhibition induces a potent IFN response and increases expression of IFN-regulated proteins. […] Mean±SEM, two-tailed unpaired Student's t test *p<0.05, **p<0.01, ***p<0.001, ****p<0.0001.
We also observed that SF3B1 inhibition triggers robust anti-tumor response and upregulates IFN-β, IFN-γ, and IFN-responsive genes by real-time reverse-transcription quantitative polymerase chain reaction (rRT-qPCR) in H446 and H82 cells (FIGS. 3A and 3B). […] These observations indicate that spliceosome inhibition is useful as a targeted therapy for SCLCs.

[7] = tested on: MEF ΔZBP1 cells; test: A-RNA and Z-NA accumulation in MEF ΔZBP1; assay type: cell-based, mouse
Procedure: as §1, §2

[8] = tested on: wild type RPPM631 cells; test: Viability of wild type RPPM631 cells; assay type: cell-based, mouse; settings: PlaB
Text: (§7) Next, we prepared ZBP1-KO RPPM631 cells to determine whether the necroptosis was ZBP-1 dependent.

[9] = tested on: ZBP1-KO RPPM631 cells; test: Viability of ZBP1-KO RPPM631 cells; assay type: cell-based, mouse; settings: PlaB
Text: as §7

[10] = tested on: pTBK1 protein; test: Western blot of pTBK1; assay type: cell-based
Text: FIG. 7: Western Blot analysis showing pTBK1 protein depletion.
Based on the publications and our findings, TNF sensing can at least partially rescue spliceosome perturbation mediated cell death.

[11] = tested on: H446 KO cells; test: CytoToxicity of PlaB in TNFR1-, TRADD-, FADD-, CASP8-KO H446 cells (trypan blue); assay type: cell-based, human; settings: 2.5 nM PlaB, 18 hrs
Text: as §3, §4, §5, §6

[12] = tested on: RPPM631 cells; test: A-RNA and Z-NA accumulation in RPPM631 cells; assay type: cell-based, mouse; settings: 25 nM PLAB
Procedure: Additionally, SF3B1 inhibition was directly compared to SF3B1 knockout in the mouse SCLC cell line RPPM631. RPPM631 cells were treated with 25 nM PLAB and analyzed for their accumulation of Z-NA and A-RNA. […] (FIG. 12) Next, SF3B1-KO RPPM631 cells were generated and analyzed using immunc-fluorescence technique.

[13] = tested on: MEF ΔZBP1 cells; test: Survival of PlaB treated MEF ΔZBP1; assay type: cell-based, mouse
Procedure: FIG. 16: Analysis of the effect of spliceosome inhibition on necroptosis in WT MEF cells. EV refers to cells treated with an empty vector.
as §2

With CCC(O)C(C)C1OC1CC(C)C=CC=C(C)C1OC(=O)CC(O)CCC(C)(O)C(OC(C)=O)C=CC1C (centres unmarked) [PlaB, Pladienolide B] the “pMLKL (necroptosis)” value ([1]; MEF RA) was “not triggered”, the PlaB-mediated necroptosis ([1]; MEF RHIM-A mutant) was “avoid PlaB-mediated necroptosis” and the “A-RNA and Z-NA accumulation” value [2] was “accumulation”. The “A-RNA and Z-NA accumulation” value [3] was “accumulation”, the “rescue from PlaB toxicity by CASP8-KO” value ([4]; H82 CASP8-KO) was “effectively rescued” and the “rescue from PlaB toxicity by FADD-KO” value ([4]; H82 FADD-KO) was “effectively rescued”. For the same compound, the “rescue from PlaB toxicity by TNFR1-KO” value ([4]; H82 TNFR1-KO) was “effectively rescued”, the “rescue from PlaB toxicity by TRADD-KO” value ([4]; H82 TRADD-KO) was “effectively rescued” and the “cell survival upon RIPK1 depletion” value [5] was “rescues”. The IFN response [6] was “induces potent IFN response”, the A-RNA induction ([7]; 5 nM PlaB, 18 hours) was “induces” and the Z-Nucleic acids induction ([7]; 5 nM PlaB, 18 hours) was “induces”. For the same compound, the “A-RNA and Z-NA accumulation” value ([7]; SF3B1 inhibition) was “accumulation”, the viability [8] was “significant decrease in viability” and the viability [9] was “only a minor decrease in viability”. The pTBK1 protein [10] was “dramatic reduction”, the “rescue from PlaB toxicity by CASP8-KO” value ([11]; H446 CASP8-KO) was “effectively rescued” and the “rescue from PlaB toxicity by FADD-KO” value ([11]; H446 FADD-KO) was “effectively rescued”. For the same compound, the “rescue from PlaB toxicity by TNFR1-KO” value ([11]; H446 TNFR1-KO) was “effectively rescued”, the “rescue from PlaB toxicity by TRADD-KO” value ([11]; H446 TRADD-KO) was “effectively rescued” and the A-RNA accumulation [12] was “increase”. The Z-NA accumulation [12] was “increase” and the “time after treatment at which cells began dying” value [13] was no more than 24 h.
